Measurements as given in PMC12257510, “Structure-Guided Design of a KMT9 Inhibitor Prodrug with Cellular Activity” (Journal of Medicinal Chemistry, 2025).
Where two headings read alike, the source gives them in different places. One block for each compound: values may come before it.

Legend:
[1] = target: T1, KMT9 (Homo sapiens, UniProt Q9Y5N5); experiment: Microscale thermophoresis (MST) binding assay; conditions: for Kd: MST, binding to KMT9, read-out: Kd
T1 sequence (Q9Y5N5 1-214): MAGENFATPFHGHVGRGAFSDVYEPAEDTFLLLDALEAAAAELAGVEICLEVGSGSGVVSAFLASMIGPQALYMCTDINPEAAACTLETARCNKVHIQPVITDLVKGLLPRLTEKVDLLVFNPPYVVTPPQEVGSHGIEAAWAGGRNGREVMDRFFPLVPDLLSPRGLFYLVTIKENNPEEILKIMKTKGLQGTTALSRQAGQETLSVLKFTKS
T1 sequence (Q9UI30 1-125 partner): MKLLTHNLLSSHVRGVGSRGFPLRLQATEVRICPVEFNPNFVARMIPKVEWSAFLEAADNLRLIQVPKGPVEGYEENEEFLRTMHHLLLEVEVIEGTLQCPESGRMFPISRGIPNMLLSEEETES
Experimental: To determine the binding affinity of the compound and KMT9, microscale thermophoresis (MST) analysis was performed with a NanoTemper Monolith NT.115 instrument (NanoTemper Technologies GmbH). KMT9 was labeled with a RED-Tris-NTA labeling kit (NanoTemper Technologies GmbH) based on the manufacturer’s instructions. Buffer including 25 mM HEPES (pH 7.5), 100 mM NaCl, 1 mM DTT and 0.05% Tween was used for the reaction buffer. Varying concentrations of compounds were titrated against His-tag labeled KMT9 proteins (20 nM). Samples were loaded into standard Capillaries (NanoTemper Technologies GmbH) and MST measurements were performed using 40% MST power and 100% LED power. For each set of binding experiments, MST measurement was carried out with Binding Affinity module in MO. Control program under Nano-RED excitation. Data sets were processed with the MO.Affinity Analysis software (NanoTemper Technologies GmbH).

[2] = target: T1, KMT9; parameters: method as in previous study; conditions: compound 2d taken as a reference from the previous study; ref previous study; cited from earlier work
[3] = target: T1, KMT9; parameters: method as in previous study; conditions: compound 2d taken as a reference from the previous study; ref previous study; cited from earlier work; remark: listed apart in the source
[4] = target: T1, KMT9; parameters: method as in previous study; conditions: compound 2d taken as a reference from the previous study; ref previous study; cited from earlier work; remark: listed apart in the source
[5] = test system: panel of 27 SET domain-containing and 14 Rossmann-fold methyltransferases; experiment: Selectivity assay, radiometric methyltransferase panel; assay type: biochemical; conditions: IC50 panel, 3H-labeled SAM
Experimental: Selectivity profile of compound 6 was evaluated by testing the IC50 in a panel of methyltransferases. The IC50 of a panel of SET-domain containing and Rossmann-fold methyltransferases was assessed in a radiometric assay measuring substrate methylation using ^3H-labeled SAM by RBC Corp by compound 6. Data was process and plotted using KNIME Analytic Platform from KNIME AG.

[6] = target: T2, endogenous KMT9a (Homo sapiens, UniProt Q9Y5N5); experiment: CETSA in SW480 cell lysate, KMT9; assay type: binding; conditions: 2 h, vs DMSO
T2 construct: increased thermal stability of endogenous KMT9 in SW480 cell lysates; endogenous in cells; host or cells: SW480
T2 sequence (Q9Y5N5 1-214): T1 sequence (Q9Y5N5 1-214)
T2 sequence (Q9UI30 1-125 partner): T1 sequence (Q9UI30 1-125 partner)
Experimental: (§1) For whole cell CETSA, the cells were incubated with 10/15 μM of compound 7b/8/8-N for 18 h. Then, cells were washed with cell culture medium, detached from the surface using trypsin, washed with PBS and the number of cells was determined. Cell concentration was adjusted to 3.6 × 10^7 cells/mL using in PBS with Complete (w/o EDTA, Roche) protease inhibitor. Then, cells were frozen in liquid nitrogen and thawed at 25 °C three times, before being divided in 16 aliquots. Each aliquot was heated to a defined temperature between 40 and 70 °C in a PCR cycler (16 well gradient, 55 °C ± 15). After 3 min incubation, aliquots were snap frozen in liquid nitrogen and thawed at 25 °C. Cell lysates were then centrifuged at 20,000 × g , 4 °C for 20 min. Supernatant were mixed with 5× loading buffer, heated to 70 °C for 5 min and analyzed by Western blotting essentially as previously described. For the CETSA performed with cell lysates, cells were directly harvested and lysed as described above. The lysates were then split and incubated either with DMSO or 10 μM compound 7b for 2 h. Then, lysates were aliquoted again into 16 samples each and treated as described for the whole cell CETSA.

[7] = target: T1, KMT9; experiment: KMT9 methyltransferase inhibition assay (3H-SAM, ETF1 substrate)
Experimental: The assay was carried out in 0.5 mL Eppendorf tubes in duplicates. Assay buffer consisted of 50 mM BTP, 1 mM MgCl2, 1 mM DTT and 0,01% Triton-X100 at a pH of 8.5 (adjusted using 1 M HCl and 1 M NaOH). 20X inhibitor stock (in DMSO), 2× enzyme stock and 4× substrate mix (both in assay buffer) were prepared. The substrate mix consisted of Tritium-labeled S-adenosylmethionine (3H-SAM), S-adenosylmethionine (SAM) and eukaryotic peptide chain release factor subunit1 (, residues 140–275) (ETF1). Final assay concentrations were set to 25 nM KMT9, 0.3 μM 3H-SAM, 0.7 μM SAM and 5 μM ETF1. […] Five μL of 4× substrate mix was added to initiate the reaction. The final reaction volume was 20 μL. For the positive control, the compound was replaced by DMSO; for the negative control, the compound was replaced by DMSO and KMT9 was replaced by assay buffer. The reaction mix was incubated in an Eppendorf thermomixer comfort at 30 °C for 2 h, shaking at 300 rpm. The reaction was quenched using 5 μL 50% trichloroacetic acid (TCA) and incubated at 25 °C for 5 min. Twenty-two μL of the mixture was transferred into 96-well MultiScreenHTS FB filter plates (Merck KGaA, Darmstadt, Germany) and washed four times with 10% TCA and two times with 100% ethanol. The plate was dried overnight, the filters were transferred into individual 6 mL Pony Vials (PerkinElmer Inc., Waltham, MA, USA) and incubated in 3 mL of Ultima Gold scintillation cocktail (PerkinElmer Inc., Waltham, MA, USA) for 30 min. The scintillation signal was measured for 3× 1 min using TriCarb 2910 TR (PerkinElmer) scintillation counter in 3H CPM mode (LL: 0, UL: 18.6).
Inhibition was calculated using the following formula: Inhibition[%]=(1−xc−xpos/xpos−xneg)×100
With xc: signal of compound, xpos: mean signal of positive control, xneg: mean signal of negative control. Data fitting was carried out by GraphPad 7.0 using nonlinear fit ([Inhibitor] vs response – variable slope (four parameters)).

[8] = target: T1, KMT9; experiment: Thermal shift assay (SyproOrange); assay type: binding; conditions: thermal shift, 2 μM KMT9, 500 μM compound; read-out: ΔTm
Experimental: The assay was carried out in 96-well Hard-Shell PCR plates (Bio-Rad Laboratories Inc.). […] Final assay concentrations were set to 500 μM of compound 8, 2 μM KMT9 and 5× SO. One μL of 20× compound, 4 μL of assay buffer, 10 μL of 2× KMT9 and 5 μL of 4× SO were pipetted. For the no-compound control, 20× inhibitor stock was replaced by DMSO. The final volume was 20 μL. The plate was spun down at 700 rpm for 1 min using a Hettich UNIVERSAL 320 centrifuge and incubated at 25 °C, shaking at 600 rpm. After incubation, the plate was spun down for 1 min at 700 rpm and measurement was conducted using a CFX96 Touch Real-Time PCR Detection System (Bio-Rad Laboratories Inc.). The plate was equilibrated at 20 °C for 4 min and then heated stepwise at a rate of 1 °C per 15 s until 95 °C. After every step, fluorescence was measured in FRET mode. Calculation of melting points was conducted by a Boltzman sigmoidal model using GraphPad Prism 7.0.

[9] = target: T2, endogenous KMT9a; experiment: CETSA in intact SW480 cells, KMT9; assay type: cell-based; conditions: 18 h, vs DMSO
Experimental: as §1

[10] = target: T3, KMT5A (Homo sapiens, UniProt Q9NQR1); experiment: CETSA in SW480 cell lysate, KMT5A (negative control); assay type: binding; parameters: endogenous in cells; host or cells: SW480; conditions: negative control protein
T3 sequence (Q9NQR1 1-393): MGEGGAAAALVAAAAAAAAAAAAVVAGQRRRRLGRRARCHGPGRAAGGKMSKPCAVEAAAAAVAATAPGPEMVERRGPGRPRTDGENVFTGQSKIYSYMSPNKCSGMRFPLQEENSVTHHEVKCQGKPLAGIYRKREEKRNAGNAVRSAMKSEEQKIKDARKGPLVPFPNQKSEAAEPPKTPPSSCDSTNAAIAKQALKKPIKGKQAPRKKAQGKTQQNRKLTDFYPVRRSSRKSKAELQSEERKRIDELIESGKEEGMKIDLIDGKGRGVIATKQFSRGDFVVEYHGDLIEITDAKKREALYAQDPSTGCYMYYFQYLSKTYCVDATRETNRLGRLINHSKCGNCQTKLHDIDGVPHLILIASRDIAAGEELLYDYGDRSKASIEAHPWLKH
Experimental: as §1, with “The lysates were then split and incubated either with DMSO or 10 μM compound 7b for 2 h. Then, lysates were aliquoted again into 16 samples each and treated as described for the whole cell CETSA.” left out
(§2) Figure S4. […] Representative Western blots (A) and quantification (B) showing no obvious shifting melting temperatures (ΔT m) of endogenous KMT5A upon treatment with compound 7b compared to DMSO. […]
(§3) Representative Western blots (C) and quantification (D) showing no shifting melting temperatures (ΔT m) of endogenous KMT5A upon treatment with compound 8 compared to DMSO. […]

[11] = test system: Caco-2 cells; experiment: Cell proliferation assay (X-Celligence), Caco-2; assay type: cell-based; conditions: Xcelligence, vs DMSO
Experimental: Cell proliferation was determined using the X-Celligence RTCA system (Roche). For real-time recording of SW480, Caco-2 cell proliferation, 5000 cells/well were seeded in 16 well E-plates (Roche). […] Cell indices were automatically recorded every 15 min. Relative velocities represent the change of the cell index over time. The sequences of the siRNAs (Stealth RNAi siRNAs; Life Technologies) used in the experiments have been previously described.

[12] = target: T4, KMT9a (Homo sapiens, UniProt Q9Y5N5); experiment: CETSA in Caco-2 cells, KMT9; assay type: cell-based; parameters: of endogenous KMT9 upon treatment with; endogenous in cells; host or cells: Caco-2; conditions: 15 μM
T4 sequence (Q9Y5N5 1-214): T1 sequence (Q9Y5N5 1-214)
T4 sequence (Q9UI30 1-125 partner): T1 sequence (Q9UI30 1-125 partner)
Experimental: as §1, with “The lysates were then split and incubated either with DMSO or 10 μM compound 7b for 2 h. Then, lysates were aliquoted again into 16 samples each and treated as described for the whole cell CETSA.” left out
as §2, §3

[13] = test system: H4K12me1 levels in PC-3 M prostate tumor cells; experiment: Western blot of cellular H4K12me1 levels; assay type: cell-based; conditions: PC-3 M cells, 10 μM, 3 days
Experimental: 7 Cellular activity of prodrug compound 8. (A) Levels of H4K12me1 in PC-3 M prostate tumor cells cultured in the presence of DMSO (−), 10 μM compound 8 or compound 8-N for 3 days were analyzed by Western blot using the indicated antibodies. Histone H4 was used as control. (B, C) Proliferation of Caco-2 cells treated with DMSO (Ctrl), compound 8, or compound 8-N were measured by Xcelligence. Data represent means ± s.d (n = 3). (D) Proliferation of HepG2 cells upon treatment of DMSO (Ctrl) and compound 8.
Experiments were performed as previously described. Histones used for Western blot analysis were extracted from cells as following: Cells were harvested, washed with PBS, resuspended in Triton Extraction Buffer (TEB; PBS, Triton ×100, 2 mM PMSF, 0.02% NaN3), stored 10 min on ice, centrifuged, and supernatant was discarded. After washing cells, a second time with TEB, pellets were resuspended in 0.2 N HCl and histones were acid-extracted overnight at 4 °C. Upon centrifugation for 10 min at 2000 rpm, supernatant was collected and protein concentration was determined. Three days before harvesting, cells were transfected with siRNA as indicated. The following antibodies were used: anti-KMT9α (#27630, lot 20062017, Schüle Lab), antihistone H4 (#ab10158, lot GR322677–1, Abcam), anti-H4K12me1 (#27429, lot 27062017, Schüle Lab).

Increase of binding compared to compound 1 ([1]; Kd ratio vs compound 1): about 1000 fold
Compound: NCCCN(CC[C@H](N)C(=O)O)C[C@H]1O[C@@H](n2cnc3c(N)ncnc32)[C@H](O)[C@@H]1O [compound 2d, (S)-2-Amino-4-((((2R,3S,4R,5R)-5-(6-amino-9H-purin-9-yl)-3,4-dihydroxytetrahydrofuran-2-yl)methyl)(3-aminopropyl)amino)butanoic acid]
ΔTm [2]: ΔTm= 18.12 K | IC50 [3]: 29 nM | Kd [4]: 10 nM

Kd ([1]; given in nM): 30 nM | Selectivity against SET-domain containing and Rossmann-fold MTs [5]: selective for KMT9 against other MTs
Compound: CNc1ncnc2c1ccn2[C@@H]1C[C@H](CN(CCCNCCc2ccccc2)CC[C@H](N)C(=O)O)[C@@H](O)[C@H]1O [compound 6, (S)-2-Amino-4-((((1R,2R,3S,4R)-2,3-dihydroxy-4-(4-(methylamino)-7H-pyrrolo[2,3-d]pyrimidin-7-yl)cyclopentyl)methyl)(3-(phenethylamino)propyl)amino)butanoic acid]

Kd ([1]; given in nM): 12 nM | Kd [1]: 10 nM | ΔTm at 10 µM [6]: 10.9 °C | IC50 [7]: 160 nM | ΔTm at 500 µM [8]: 19.7 °C | ΔTm at 10 µM [9]: 1.8 °C | ΔTm at 10 µM [10]: 1.1 °C
Compound: CNc1ncnc2c1ccn2[C@@H]1C[C@H](CN(CCCNCCc2ccc(Oc3ccc(Cl)cc3)c(F)c2)CC[C@H](N)C(=O)O)[C@@H](O)[C@H]1O [compound 7b, (s)-2-Amino-4-((3-((4-(4-chlorophenoxy)-3-fluorophenethyl)amino)propyl) (((1R,2R,3S,4R)-2,3-dihydroxy-4-(4-(methylamino)-7H-pyrrolo[2,3-d]pyrimidin-7-yl)cyclopentyl)methyl)amino)butanoic Acid]

Compound: Ethyl (S)-2-amino-4-((3-(4-(4-chlorophenoxy)-3-fluorophenethoxy)propyl) (((1R,2R,3S,4R)-2,3-dihydroxy-4-(4-(methylamino)-7H-pyrrolo[2,3-d]pyrimidin-7-yl)cyclopentyl)methyl)amino)butanoate [compound 8-N]
Proliferation of Caco-2 cells [11]: fails to do so | ΔTm of KMT9 (CETSA) [12]: 0.1 K | Levels of H4K12me1 [13]: no effect was observed | ΔTm of endogenous KMT9 (CETSA) ([9]; 10 μM): −0.6 K
